Among the test systems are BT-549 breast; UO-31 renal; NCI-H522 lung; SK-MEL-28 melanoma; OVCAR-3 ovarian; SF-268 CNS; SF-295 CNS; RXF 393 renal; U251 CNS; CCRF-CEM leukemia.
Common to all, as to assay: DTP human tumour cell line panel, 48 h

“And” between values parts separate entries of the source, which are not always exact repeats. Equal entries are not always repeated.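 1) Cells in 96-well plates. 2) Compound, 48 h, 5 concentrations. 3) Linear interpolation between surrounding doses. 4) Unreached endpoint = highest concentration. Abbreviation: GI50, concentration required for 50% inhibition of growth. TGI: total growth inhibition.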

For orientation: GI50 means the concentration that inhibits growth by half. What is called TGI is the concentration giving total growth inhibition. Turning to `CN(C)CCCn1c(-c2nonc2N)nc2cnccc21`, the GI50 in the experiment on BT-549 breast is > 25 µM; in the experiment on UO-31 renal, > 11.2 µM; with NCI-H522 lung it was > 25 µM; in the experiment on SK-MEL-28 melanoma, > 25 µM; in the experiment with OVCAR-3 ovarian it was > 25 µM; in the experiment on SF-268 CNS, > 25 µM. For the same molecule, the GI50 was > 25 µM in the experiment on SF-295 CNS, > 5.19 µM in the experiment on RXF 393 renal, > 25 µM in the experiment with U251 CNS and > 25 µM in the experiment on CCRF-CEM leukemia. Moreover, the TGI with BT-549 breast, in the experiment with UO-31 renal, with NCI-H522 lung, with SK-MEL-28 melanoma, in the experiment on OVCAR-3 ovarian and in the experiment on SF-268 CNS was > 25 µM throughout. For the same molecule, the TGI with SF-295 CNS, with RXF 393 renal, with U251 CNS and in the experiment with CCRF-CEM leukemia was > 25 µM in each case.

As for `COc1ccc(Cn2cc3c(c2-c2cc(OC)c(OC)c(OC)c2)CCc2cnoc2-3)cc1`, the GI50 in the experiment on BT-549 breast is 1.62 µM; in the experiment on UO-31 renal it was 0.542 µM; with NCI-H522 lung it was 0.107 µM; with SK-MEL-28 melanoma, 0.517 µM; in the experiment with OVCAR-3 ovarian, 0.189 µM; with SF-268 CNS it was 1.18 µM. Besides, the GI50 in the experiment with SF-295 CNS is 0.129 µM; in the experiment with RXF 393 renal, 0.26 µM; in the experiment on U251 CNS, 0.393 µM; in the experiment on CCRF-CEM leukemia, 0.291 µM. The TGI was > 100 µM in the experiment on BT-549 breast; > 100 µM in the experiment on UO-31 renal; 1.17 µM with NCI-H522 lung; > 100 µM in the experiment with SK-MEL-28 melanoma; 0.484 µM in the experiment with OVCAR-3 ovarian; > 100 µM in the experiment with SF-268 CNS. In addition, the TGI was 0.821 µM in the experiment on SF-295 CNS, > 100 µM with RXF 393 renal, > 100 µM with U251 CNS and > 24.3 µM in the experiment on CCRF-CEM leukemia.

On to `Cc1cc(C(=O)c2ccccc2)c(C)c2c1[nH]c1ccc(Cl)cc12`, for which the GI50 with BT-549 breast is 0.0941 µM; in the experiment on UO-31 renal, 0.102 µM; in the experiment with NCI-H522 lung it was 0.0267 µM; with SK-MEL-28 melanoma, 3.64 µM; in the experiment with OVCAR-3 ovarian, 0.0426 µM; in the experiment with SF-268 CNS it was 0.715 µM. The GI50 is 0.0294 µM with SF-295 CNS, 0.0235 µM in the experiment on RXF 393 renal, 0.0612 µM in the experiment on U251 CNS and 0.046 µM in the experiment on CCRF-CEM leukemia. Also, the TGI in the experiment on BT-549 breast was 3.56 µM; in the experiment on UO-31 renal, 14.1 µM; in the experiment with NCI-H522 lung, 4.9 µM; in the experiment on SK-MEL-28 melanoma, 72.3 µM; with OVCAR-3 ovarian, 9.8 µM; in the experiment with SF-268 CNS it was > 78.3 µM. The TGI in the experiment with SF-295 CNS was 0.363 µM; in the experiment with RXF 393 renal it was 0.0771 µM; with U251 CNS, 16.2 µM; in the experiment with CCRF-CEM leukemia it was > 100 µM.

As to `COC(=O)C(C)NC(=O)c1ccccc1I(OS(=O)(=O)C(F)(F)F)c1ccccc1` (stereo not given), the GI50 with BT-549 breast is 23 µM; with UO-31 renal, 21.3 µM; with NCI-H522 lung, 23.9 µM; in the experiment on SK-MEL-28 melanoma, 18.7 µM; in the experiment on OVCAR-3 ovarian, 19 µM; in the experiment with SF-268 CNS, 17.6 µM. The GI50 with SF-295 CNS was > 44.7 µM; with RXF 393 renal it was 17.7 µM; with U251 CNS it was 18.2 µM; with CCRF-CEM leukemia, 20.3 µM. Besides, the TGI came out at 57.3 µM in the experiment on BT-549 breast; 42.1 µM in the experiment on UO-31 renal; 64.9 µM in the experiment with NCI-H522 lung; 45.3 µM in the experiment on SK-MEL-28 melanoma; 41.8 µM in the experiment on OVCAR-3 ovarian; 53.2 µM in the experiment with SF-268 CNS. In addition, the TGI in the experiment on SF-295 CNS was > 63.6 µM; with RXF 393 renal, 41.6 µM; in the experiment on U251 CNS it was 38.5 µM; with CCRF-CEM leukemia, 60.4 µM.

With `Cc1ccc([C@]2(C)CC[C@H](C)/C2=C\Br)c(O)c1`, the GI50 was 5.4 µM in the experiment with BT-549 breast; 6.37 µM with UO-31 renal; 3.24 µM in the experiment on NCI-H522 lung; 5.07 µM in the experiment on SK-MEL-28 melanoma; 3.23 µM in the experiment with OVCAR-3 ovarian; 6.18 µM in the experiment on SF-268 CNS. Further, the GI50 in the experiment on SF-295 CNS is 3.4 µM; in the experiment with RXF 393 renal it was 3.08 µM; in the experiment with U251 CNS, 4.03 µM; in the experiment with CCRF-CEM leukemia it was 6.77 µM. The TGI in the experiment on BT-549 breast came to 19.3 µM; in the experiment on UO-31 renal it was 20.3 µM; in the experiment with NCI-H522 lung, 12 µM; with SK-MEL-28 melanoma, 17.6 µM; in the experiment with OVCAR-3 ovarian it was 12.2 µM; with SF-268 CNS it was 21.7 µM. In addition, the TGI in the experiment with SF-295 CNS came to 11.6 µM; in the experiment with RXF 393 renal, 12.4 µM; in the experiment on U251 CNS it was 14.4 µM; in the experiment on CCRF-CEM leukemia it was 35.6 µM.

Turning to `Oc1ccc(N=Nc2ccccn2)c(O)c1`, the GI50 in the experiment on BT-549 breast was 0.628 µM; in the experiment on UO-31 renal it was 0.479 µM; with NCI-H522 lung it was 2.68 µM; in the experiment on SK-MEL-28 melanoma, 1.66 µM; in the experiment on OVCAR-3 ovarian it was 0.401 µM; in the experiment with SF-268 CNS, 0.732 µM. For the same molecule, the GI50 is 0.522 µM in the experiment with SF-295 CNS, 1.19 µM with RXF 393 renal, 0.843 µM in the experiment on U251 CNS and 0.48 µM in the experiment on CCRF-CEM leukemia. Also, the TGI in the experiment with BT-549 breast, in the experiment on UO-31 renal, with NCI-H522 lung, in the experiment with SK-MEL-28 melanoma, in the experiment on OVCAR-3 ovarian and with SF-268 CNS was > 100 µM each time. Moreover, the TGI in the experiment on SF-295 CNS is > 100 µM; with RXF 393 renal it was 33.6 µM; in the experiment with U251 CNS, > 100 µM; with CCRF-CEM leukemia, > 100 µM.

On to `CC1=NN(c2nc(N)nc(/C=C\c3ccc([N+](=O)[O-])s3)n2)C(C)(C)C1`, for which the GI50 in the experiment with BT-549 breast, in the experiment with UO-31 renal, in the experiment with NCI-H522 lung, with SK-MEL-28 melanoma, with OVCAR-3 ovarian and with SF-268 CNS was > 100 µM in each case. Also, the GI50 with SF-295 CNS was > 100 µM; in the experiment with RXF 393 renal, > 100 µM; with U251 CNS it was > 100 µM; with CCRF-CEM leukemia it was 77.5 µM. For the same molecule, the TGI with BT-549 breast, with UO-31 renal, in the experiment on NCI-H522 lung, in the experiment with SK-MEL-28 melanoma, in the experiment on OVCAR-3 ovarian and with SF-268 CNS was > 100 µM in each case. Also, the TGI with SF-295 CNS, with RXF 393 renal, in the experiment on U251 CNS and in the experiment with CCRF-CEM leukemia was > 100 µM in each case.

Consider `CC#Cc1nc(Nc2cc(C)[nH]n2)c2ccccc2n1`, for which the GI50 with BT-549 breast was 4.9 µM; with UO-31 renal it was 7.6 µM and 2.42 µM; with NCI-H522 lung it was 6.24 µM; in the experiment on SK-MEL-28 melanoma, 7.76 µM; with OVCAR-3 ovarian it was 3.38 µM; with SF-268 CNS, 4.66 µM. The GI50 in the experiment on SF-295 CNS is 12.3 µM; in the experiment with RXF 393 renal, 7.57 µM and 1.67 µM; in the experiment with U251 CNS, 11.3 µM; in the experiment with CCRF-CEM leukemia it was 4.6 µM. The TGI in the experiment on BT-549 breast was 23.2 µM; in the experiment with UO-31 renal, 14.5 µM; in the experiment on NCI-H522 lung, 22 µM; in the experiment on SK-MEL-28 melanoma, > 100 µM; with OVCAR-3 ovarian, 12.1 µM; in the experiment with SF-268 CNS, 20.5 µM. The TGI is 34.5 µM with SF-295 CNS, 4.96 µM in the experiment with RXF 393 renal, 27.4 µM in the experiment with U251 CNS and > 100 µM in the experiment on CCRF-CEM leukemia.

For the molecule `CC1(C)C(=O)/C(=C\c2cccnc2)C[C@]2(C)[C@H]3CC[C@@H]4[C@@H](C(=O)/C=C/c5ccncc5)CC[C@@]4(C)[C@]3(C)CC[C@@H]12`, the GI50 is 1.59 µM with BT-549 breast; 1.67 µM in the experiment with UO-31 renal; 1.66 µM in the experiment on NCI-H522 lung; 1.98 µM with SK-MEL-28 melanoma; 1.7 µM in the experiment with OVCAR-3 ovarian; 2.41 µM with SF-268 CNS. The GI50 with SF-295 CNS was 1.95 µM; in the experiment on RXF 393 renal, 1.72 µM; in the experiment with U251 CNS, 1.62 µM; with CCRF-CEM leukemia, 1.79 µM. The TGI in the experiment on BT-549 breast worked out at 3.35 µM; in the experiment on UO-31 renal, 3.04 µM; in the experiment with NCI-H522 lung, 4.6 µM; with SK-MEL-28 melanoma, 3.97 µM; in the experiment on OVCAR-3 ovarian it was 3.36 µM; in the experiment on SF-268 CNS, 6.53 µM. Moreover, the TGI in the experiment with SF-295 CNS turned out to be 4.31 µM; in the experiment on RXF 393 renal it was 3.18 µM; in the experiment on U251 CNS, 3.03 µM; with CCRF-CEM leukemia, 8.53 µM.

For `O=C(O)c1cc2ccccc2c2c1C(=O)c1ccccc1-2`, the total growth inhibition concentration (TGI) in the experiment on BT-549 breast, in the experiment with UO-31 renal, in the experiment with NCI-H522 lung, in the experiment with SK-MEL-28 melanoma, in the experiment with OVCAR-3 ovarian and with SF-268 CNS was > 100 µM throughout. The TGI in the experiment on SF-295 CNS, in the experiment on RXF 393 renal, with U251 CNS and with CCRF-CEM leukemia was > 100 µM each time.

With `CCCCCCCCCCCCCCCCCC(=O)Nc1ccn(C2OC(CO)C(O)C2O)c(=O)n1` (stereo not given), the TGI is > 91.5 µM in the experiment with BT-549 breast; > 79.3 µM in the experiment on UO-31 renal; 75.4 µM with NCI-H522 lung; > 100 µM with SK-MEL-28 melanoma; 69.6 µM with OVCAR-3 ovarian; > 100 µM in the experiment on SF-268 CNS. The TGI with SF-295 CNS was > 100 µM; in the experiment on RXF 393 renal, > 100 µM; with U251 CNS, > 100 µM; in the experiment on CCRF-CEM leukemia, 26.2 µM.

As for `Nc1ncc(-c2cccc(S(N)(=O)=O)c2)c2scc(-c3ccc(F)c(Cl)c3)c12`, the GI50 in the experiment with BT-549 breast is 7.69 µM; in the experiment with UO-31 renal it was 2.22 µM; in the experiment with NCI-H522 lung, 3.74 µM; in the experiment with SK-MEL-28 melanoma it was 8.8 µM; in the experiment with OVCAR-3 ovarian, 5.42 µM; with SF-268 CNS, 5.93 µM. Further, the GI50 in the experiment with SF-295 CNS was 5.66 µM; in the experiment with RXF 393 renal, 3.79 µM; in the experiment on U251 CNS, 6.77 µM; with CCRF-CEM leukemia, 6.12 µM. Besides, the TGI in the experiment with BT-549 breast was 15.1 µM; in the experiment on UO-31 renal, 21 µM; in the experiment on NCI-H522 lung, 7.74 µM; in the experiment on SK-MEL-28 melanoma, > 23.3 µM; in the experiment with OVCAR-3 ovarian it was 12.5 µM; in the experiment on SF-268 CNS it was > 25 µM. The TGI in the experiment with SF-295 CNS was 13.8 µM; with RXF 393 renal it was 9.43 µM; in the experiment on U251 CNS it was > 17.5 µM; with CCRF-CEM leukemia, > 22.2 µM.

The values above are taken from PubChem BioAssay (NCI).
